{"source": "ChEMBL document CHEMBL5465560", "about": "“Selectivity Literature for EUbOPEN Chemogenomic Library” (2024)", "key": {"[1]": {"molecular_target": "5'-AMP-activated protein kinase catalytic subunit alpha-1 (Homo sapiens, UniProt Q13131)", "assay": "Selectivity interaction (KinomeScan (DiscoverX)) EUB0000311b PRKAA1", "settings": "at 1 µM"}, "[2]": {"molecular_target": "Fibroblast growth factor receptor 4 (Homo sapiens, UniProt P22455)", "sequence (P22455 22-802 limits assumed)": "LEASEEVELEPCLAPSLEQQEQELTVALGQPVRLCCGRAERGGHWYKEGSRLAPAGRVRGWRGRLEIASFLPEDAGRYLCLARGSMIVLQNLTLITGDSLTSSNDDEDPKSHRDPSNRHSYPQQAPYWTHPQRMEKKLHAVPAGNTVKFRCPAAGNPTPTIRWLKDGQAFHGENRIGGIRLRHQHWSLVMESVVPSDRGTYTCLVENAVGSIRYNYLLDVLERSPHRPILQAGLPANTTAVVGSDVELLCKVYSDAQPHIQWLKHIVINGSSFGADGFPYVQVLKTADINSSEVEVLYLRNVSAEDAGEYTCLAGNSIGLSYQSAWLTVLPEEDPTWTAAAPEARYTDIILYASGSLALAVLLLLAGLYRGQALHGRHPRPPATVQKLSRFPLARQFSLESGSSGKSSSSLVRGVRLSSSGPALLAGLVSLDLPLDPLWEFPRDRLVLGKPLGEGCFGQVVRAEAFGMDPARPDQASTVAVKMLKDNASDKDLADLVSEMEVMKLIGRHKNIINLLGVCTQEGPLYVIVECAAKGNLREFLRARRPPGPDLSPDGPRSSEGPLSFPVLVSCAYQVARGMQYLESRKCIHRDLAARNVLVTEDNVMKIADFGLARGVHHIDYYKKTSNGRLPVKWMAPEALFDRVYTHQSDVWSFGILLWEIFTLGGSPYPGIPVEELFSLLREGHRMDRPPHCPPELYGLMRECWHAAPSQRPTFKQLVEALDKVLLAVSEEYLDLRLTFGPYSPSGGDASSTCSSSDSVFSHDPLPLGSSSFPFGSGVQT", "settings": "at 10 µM"}, "[3]": {"molecular_target": "Death-associated protein kinase 3 (Homo sapiens) (UniProt O43293)", "sequence (O43293 whole entry, looked up)": "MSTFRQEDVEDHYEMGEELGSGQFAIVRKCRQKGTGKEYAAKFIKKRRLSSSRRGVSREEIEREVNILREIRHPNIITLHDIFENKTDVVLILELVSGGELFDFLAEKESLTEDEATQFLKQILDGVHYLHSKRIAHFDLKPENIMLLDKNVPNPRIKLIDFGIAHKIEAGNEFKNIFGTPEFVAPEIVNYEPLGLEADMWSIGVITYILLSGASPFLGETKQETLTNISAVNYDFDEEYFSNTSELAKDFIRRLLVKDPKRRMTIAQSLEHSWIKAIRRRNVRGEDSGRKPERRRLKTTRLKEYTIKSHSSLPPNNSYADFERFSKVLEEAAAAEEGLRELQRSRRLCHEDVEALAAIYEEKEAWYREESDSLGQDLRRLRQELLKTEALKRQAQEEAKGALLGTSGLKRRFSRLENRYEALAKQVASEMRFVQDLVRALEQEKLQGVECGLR", "assay": "Selectivity interaction (Kinase panel (DSF assay)) EUB0001559a DAPK3"}, "[4]": {"system": "eIF-2-alpha kinase GCN2 (Homo sapiens), Q9P2K8 [S808G]", "assay": "Selectivity interaction (KinomeScan (DiscoverX)) EUB0001079a EIF2AK4", "settings": "at 1 µM"}, "[5]": {"molecular_target": "BMP-2-inducible protein kinase (Homo sapiens) (UniProt Q9NSY1)", "sequence (Q9NSY1 whole entry, looked up)": "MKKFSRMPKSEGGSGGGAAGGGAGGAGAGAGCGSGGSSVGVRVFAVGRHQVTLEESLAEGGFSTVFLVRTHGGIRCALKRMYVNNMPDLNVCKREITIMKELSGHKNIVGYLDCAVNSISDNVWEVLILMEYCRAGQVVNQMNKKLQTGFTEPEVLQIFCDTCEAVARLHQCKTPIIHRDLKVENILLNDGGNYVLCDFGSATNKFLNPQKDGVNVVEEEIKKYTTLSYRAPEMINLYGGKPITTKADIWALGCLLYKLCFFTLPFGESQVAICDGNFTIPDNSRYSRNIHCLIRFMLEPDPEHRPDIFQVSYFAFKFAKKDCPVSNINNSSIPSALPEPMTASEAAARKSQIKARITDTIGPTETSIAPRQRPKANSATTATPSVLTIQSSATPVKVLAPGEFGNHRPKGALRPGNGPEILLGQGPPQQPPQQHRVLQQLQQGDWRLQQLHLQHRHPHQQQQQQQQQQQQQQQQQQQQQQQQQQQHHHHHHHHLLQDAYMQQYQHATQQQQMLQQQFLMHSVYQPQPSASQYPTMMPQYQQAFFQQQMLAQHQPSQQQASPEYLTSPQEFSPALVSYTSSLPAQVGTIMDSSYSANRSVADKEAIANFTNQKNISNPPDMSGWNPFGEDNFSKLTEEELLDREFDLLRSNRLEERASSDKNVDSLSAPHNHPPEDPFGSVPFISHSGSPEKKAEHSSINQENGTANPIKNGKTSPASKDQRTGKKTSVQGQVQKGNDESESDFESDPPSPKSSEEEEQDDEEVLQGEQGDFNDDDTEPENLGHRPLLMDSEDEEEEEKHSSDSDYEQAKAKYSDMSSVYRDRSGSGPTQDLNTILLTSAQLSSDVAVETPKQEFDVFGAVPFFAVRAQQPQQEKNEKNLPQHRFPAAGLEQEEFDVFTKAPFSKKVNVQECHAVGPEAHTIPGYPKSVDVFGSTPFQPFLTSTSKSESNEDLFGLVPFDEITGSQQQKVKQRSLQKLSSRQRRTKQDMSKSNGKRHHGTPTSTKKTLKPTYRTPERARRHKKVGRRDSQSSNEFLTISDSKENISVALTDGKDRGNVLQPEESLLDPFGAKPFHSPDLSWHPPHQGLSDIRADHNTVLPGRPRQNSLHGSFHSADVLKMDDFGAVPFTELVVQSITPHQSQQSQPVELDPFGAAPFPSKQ", "settings": "at 10 µM"}, "[6]": {"system": "Fibroblast growth factor receptor 3 (Homo sapiens), P22607 [G697C]", "sequence (P22607 whole entry G697C)": "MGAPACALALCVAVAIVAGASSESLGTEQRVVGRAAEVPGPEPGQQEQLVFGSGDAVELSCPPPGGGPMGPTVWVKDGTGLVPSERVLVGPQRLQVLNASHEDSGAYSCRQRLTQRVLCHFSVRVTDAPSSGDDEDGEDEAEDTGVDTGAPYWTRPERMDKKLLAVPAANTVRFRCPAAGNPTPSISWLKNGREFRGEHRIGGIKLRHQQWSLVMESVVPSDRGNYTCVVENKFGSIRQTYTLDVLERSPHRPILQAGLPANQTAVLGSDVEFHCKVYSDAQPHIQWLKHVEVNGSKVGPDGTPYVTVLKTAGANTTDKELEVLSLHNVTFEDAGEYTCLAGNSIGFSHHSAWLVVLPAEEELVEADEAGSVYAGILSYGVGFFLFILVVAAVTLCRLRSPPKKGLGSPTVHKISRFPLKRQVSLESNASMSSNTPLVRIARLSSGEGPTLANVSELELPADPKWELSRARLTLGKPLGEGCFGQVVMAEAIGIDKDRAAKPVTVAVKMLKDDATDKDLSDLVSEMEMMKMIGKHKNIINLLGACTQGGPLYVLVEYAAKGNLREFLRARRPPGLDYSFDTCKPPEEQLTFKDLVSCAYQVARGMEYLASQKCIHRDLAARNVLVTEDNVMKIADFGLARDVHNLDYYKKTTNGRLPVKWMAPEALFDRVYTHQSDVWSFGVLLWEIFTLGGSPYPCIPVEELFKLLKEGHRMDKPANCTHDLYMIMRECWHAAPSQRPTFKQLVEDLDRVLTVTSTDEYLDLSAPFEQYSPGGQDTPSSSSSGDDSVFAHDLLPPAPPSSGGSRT", "settings": "at 10 µM"}, "[7]": {"molecular_target": "Protein kinase C delta type (Homo sapiens) (UniProt Q05655)", "sequence (Q05655 whole entry, looked up)": "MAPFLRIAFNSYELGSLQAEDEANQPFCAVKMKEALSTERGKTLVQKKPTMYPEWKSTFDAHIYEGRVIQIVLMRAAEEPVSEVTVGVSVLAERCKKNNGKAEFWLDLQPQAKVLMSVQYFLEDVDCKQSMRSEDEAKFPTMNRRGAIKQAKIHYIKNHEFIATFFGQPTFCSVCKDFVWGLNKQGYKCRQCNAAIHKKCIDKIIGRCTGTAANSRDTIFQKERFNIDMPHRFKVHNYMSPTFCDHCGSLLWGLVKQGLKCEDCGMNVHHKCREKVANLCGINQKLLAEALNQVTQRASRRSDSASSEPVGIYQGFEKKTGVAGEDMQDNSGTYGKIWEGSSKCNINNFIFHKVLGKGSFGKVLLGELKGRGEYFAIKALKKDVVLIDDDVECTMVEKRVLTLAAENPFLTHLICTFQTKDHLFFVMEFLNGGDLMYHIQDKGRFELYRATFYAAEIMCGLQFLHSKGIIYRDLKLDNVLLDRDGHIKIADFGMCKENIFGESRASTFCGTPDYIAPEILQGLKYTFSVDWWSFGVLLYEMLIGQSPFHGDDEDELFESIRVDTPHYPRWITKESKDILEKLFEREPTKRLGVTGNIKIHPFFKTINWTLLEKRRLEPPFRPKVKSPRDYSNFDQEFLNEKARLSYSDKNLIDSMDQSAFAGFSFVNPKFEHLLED", "assay": "Selectivity interaction (Millipore kinase profiler) EUB0000124b PRKCD", "settings": "at 10 µM"}, "[8]": {"molecular_target": "Non-receptor tyrosine-protein kinase TYK2 (Homo sapiens, UniProt P29597)", "assay": "Selectivity interaction (Kinase panel (33PanQinase(R) Activity Assay)) EUB0000877a TYK2"}, "[9]": {"molecular_target": "Fibroblast growth factor receptor 1 (Homo sapiens, UniProt P11362)", "assay": "Selectivity interaction (Kinase panel (literature)) EUB0001199aCl FGFR1", "settings": "at 1 µM"}, "[10]": {"molecular_target": "Proto-oncogene tyrosine-protein kinase receptor Ret (Homo sapiens, UniProt P07949)", "sequence (P07949 whole entry)": "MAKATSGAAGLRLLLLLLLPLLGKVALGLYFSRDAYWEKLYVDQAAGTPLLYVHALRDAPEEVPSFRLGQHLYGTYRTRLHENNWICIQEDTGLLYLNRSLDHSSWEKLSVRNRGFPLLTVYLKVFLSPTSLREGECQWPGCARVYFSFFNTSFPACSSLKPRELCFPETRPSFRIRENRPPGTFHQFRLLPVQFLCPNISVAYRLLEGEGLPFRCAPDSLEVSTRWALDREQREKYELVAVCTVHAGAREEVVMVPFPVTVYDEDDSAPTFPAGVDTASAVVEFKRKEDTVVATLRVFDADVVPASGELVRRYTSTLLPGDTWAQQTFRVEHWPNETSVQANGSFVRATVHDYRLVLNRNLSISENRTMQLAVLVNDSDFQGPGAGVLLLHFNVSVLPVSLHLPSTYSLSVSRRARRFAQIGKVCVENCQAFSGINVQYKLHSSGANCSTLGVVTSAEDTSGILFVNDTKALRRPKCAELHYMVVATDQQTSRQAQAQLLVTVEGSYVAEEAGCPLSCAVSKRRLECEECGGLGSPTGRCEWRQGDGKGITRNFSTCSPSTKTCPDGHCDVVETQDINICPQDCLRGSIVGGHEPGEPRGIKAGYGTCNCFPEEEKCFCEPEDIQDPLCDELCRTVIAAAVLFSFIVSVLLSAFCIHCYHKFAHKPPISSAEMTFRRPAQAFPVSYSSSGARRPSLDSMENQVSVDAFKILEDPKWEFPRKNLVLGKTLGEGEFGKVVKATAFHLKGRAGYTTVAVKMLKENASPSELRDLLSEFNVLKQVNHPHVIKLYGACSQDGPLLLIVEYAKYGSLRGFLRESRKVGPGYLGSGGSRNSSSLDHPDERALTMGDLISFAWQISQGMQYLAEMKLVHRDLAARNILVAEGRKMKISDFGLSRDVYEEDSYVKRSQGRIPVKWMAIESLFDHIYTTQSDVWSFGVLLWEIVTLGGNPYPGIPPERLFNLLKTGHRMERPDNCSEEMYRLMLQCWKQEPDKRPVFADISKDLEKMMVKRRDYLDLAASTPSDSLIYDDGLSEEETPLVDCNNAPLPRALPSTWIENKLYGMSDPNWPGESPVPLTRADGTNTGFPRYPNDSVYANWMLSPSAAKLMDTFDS", "assay": "Selectivity interaction (SelectScreen profiling (Invitrogen)) EUB0000607a RET", "settings": "at 2 µM"}, "[11]": {"molecular_target": "T1, Mitogen-activated protein kinase kinase kinase 6 (Homo sapiens) (UniProt O95382)", "T1 sequence (whole entry)": "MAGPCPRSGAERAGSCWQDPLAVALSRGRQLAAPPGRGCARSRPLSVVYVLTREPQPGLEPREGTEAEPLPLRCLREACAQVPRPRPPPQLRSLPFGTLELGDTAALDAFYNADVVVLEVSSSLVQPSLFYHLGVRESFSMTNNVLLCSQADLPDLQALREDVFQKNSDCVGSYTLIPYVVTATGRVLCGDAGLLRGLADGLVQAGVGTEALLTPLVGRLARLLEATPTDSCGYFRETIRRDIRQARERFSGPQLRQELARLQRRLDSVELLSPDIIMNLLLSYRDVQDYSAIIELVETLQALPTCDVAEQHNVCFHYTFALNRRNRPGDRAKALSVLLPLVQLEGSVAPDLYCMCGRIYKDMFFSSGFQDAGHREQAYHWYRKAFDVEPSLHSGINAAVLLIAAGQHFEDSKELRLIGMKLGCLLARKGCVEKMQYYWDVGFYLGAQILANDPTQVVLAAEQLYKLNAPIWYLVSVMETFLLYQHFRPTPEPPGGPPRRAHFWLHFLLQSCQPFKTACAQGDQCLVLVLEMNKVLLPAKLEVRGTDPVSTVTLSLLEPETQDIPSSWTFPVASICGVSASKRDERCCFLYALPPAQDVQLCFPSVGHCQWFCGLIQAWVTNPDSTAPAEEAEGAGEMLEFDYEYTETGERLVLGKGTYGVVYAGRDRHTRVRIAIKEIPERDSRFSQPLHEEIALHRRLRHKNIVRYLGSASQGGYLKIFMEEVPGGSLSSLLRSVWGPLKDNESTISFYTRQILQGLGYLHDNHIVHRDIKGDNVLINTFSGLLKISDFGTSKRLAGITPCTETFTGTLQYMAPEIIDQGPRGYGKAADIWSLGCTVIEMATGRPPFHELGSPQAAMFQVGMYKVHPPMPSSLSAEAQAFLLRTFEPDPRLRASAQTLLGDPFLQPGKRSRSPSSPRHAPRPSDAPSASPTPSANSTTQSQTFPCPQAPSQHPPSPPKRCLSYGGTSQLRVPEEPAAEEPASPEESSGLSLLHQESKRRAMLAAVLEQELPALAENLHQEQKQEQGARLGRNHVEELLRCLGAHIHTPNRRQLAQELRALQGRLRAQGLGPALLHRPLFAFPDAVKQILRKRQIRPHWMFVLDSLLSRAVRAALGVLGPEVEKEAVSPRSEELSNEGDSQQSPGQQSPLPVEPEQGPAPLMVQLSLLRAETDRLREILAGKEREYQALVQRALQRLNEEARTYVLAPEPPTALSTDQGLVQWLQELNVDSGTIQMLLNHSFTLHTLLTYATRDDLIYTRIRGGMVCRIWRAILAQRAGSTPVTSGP", "assay": "Selectivity interaction (KinomeScan (DiscoverX)) EUB0000618a MAP3K6", "settings": "at 10 µM"}, "[12]": {"molecular_target": "Insulin receptor (Homo sapiens, UniProt P06213)", "assay": "Selectivity interaction (KinomeScan (DiscoverX)) EUB0000655a INSR", "settings": "at 10 µM"}, "[13]": {"system": "Fibroblast growth factor receptor 3 (Homo sapiens), P22607 [G697C]", "assay": "(§1) Selectivity interaction (KinomeScan (DiscoverX)) EUB0000699a FGFR3", "settings": "at 10 µM"}, "[14]": {"molecular_target": "Fibroblast growth factor receptor 3 (Homo sapiens, UniProt P22607)", "assay": "as §1", "settings": "at 10 µM"}, "[15]": {"molecular_target": "Serine/threonine-protein kinase pim-1 (Homo sapiens, UniProt P11309)", "settings": "at 10 µM"}, "[16]": {"molecular_target": "T2, Cytoplasmic tyrosine-protein kinase BMX (Homo sapiens) (UniProt P51813)", "T2 sequence (whole entry)": "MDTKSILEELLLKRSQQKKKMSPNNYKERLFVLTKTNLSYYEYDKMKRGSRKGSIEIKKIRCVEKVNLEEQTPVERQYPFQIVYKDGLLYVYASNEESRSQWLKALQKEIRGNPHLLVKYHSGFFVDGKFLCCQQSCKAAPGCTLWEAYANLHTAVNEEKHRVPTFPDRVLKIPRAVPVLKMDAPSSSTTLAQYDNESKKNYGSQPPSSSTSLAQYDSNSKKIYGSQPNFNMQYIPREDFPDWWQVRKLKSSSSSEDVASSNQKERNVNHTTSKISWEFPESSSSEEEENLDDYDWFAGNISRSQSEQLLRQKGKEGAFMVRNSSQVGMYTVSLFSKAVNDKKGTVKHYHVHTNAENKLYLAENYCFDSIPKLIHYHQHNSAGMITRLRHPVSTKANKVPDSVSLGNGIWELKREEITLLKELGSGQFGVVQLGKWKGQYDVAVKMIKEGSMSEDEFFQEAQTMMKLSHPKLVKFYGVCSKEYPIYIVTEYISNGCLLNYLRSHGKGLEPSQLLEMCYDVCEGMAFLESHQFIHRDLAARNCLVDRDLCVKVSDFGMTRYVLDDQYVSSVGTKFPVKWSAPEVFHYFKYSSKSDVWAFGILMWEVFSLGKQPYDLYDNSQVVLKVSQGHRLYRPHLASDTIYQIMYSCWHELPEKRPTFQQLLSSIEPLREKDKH", "assay": "Selectivity interaction (KinomeScan (DiscoverX)) EUB0000092b BMX", "settings": "at 10 µM"}, "[17]": {"molecular_target": "Death-associated protein kinase 3 (Homo sapiens) (UniProt O43293)", "assay": "Selectivity interaction (Ambit KINOMEscan and KiNATiv profiling in Jurkat cells) EUB0000090b DAPK3", "assay_type": "cell-based", "settings": "at 1 µM"}}, "data": [{"smiles": "CCc1ccccc1C(=O)Nc1n[nH]c2c(C)c(F)c(C3C(C#N)=C(C)N(C)C(C)=C3C#N)cc12", "note": "[BAY-3827]", "values": [{"measurement": "% of control", "setting": "[1]", "result": 7.5, "unit": "%"}]}, {"smiles": "COCC(=O)NC/C=C/c1ccc2ncnc(Nc3ccc(Oc4ccc(C)nc4)c(C)c3)c2c1", "note": "[CP-724714]", "values": [{"measurement": "% of control", "setting": "[2]", "result": 100, "unit": "%"}]}, {"smiles": "CN(C(=O)c1cnn2cccnc12)c1cc2c(cc1N1CCOCC1)C(=O)N(C[C@@H](F)C(C)(C)O)C2", "values": [{"measurement": "dTM", "setting": "[3]", "result": 0.2, "unit": "K"}]}, {"smiles": "Nc1cnc(N2CCc3cc(S(=O)(=O)Nc4c(F)cc(Cl)cc4F)cc(N4CCCC4=O)c32)nc1", "note": "[TP-020n]", "values": [{"measurement": "% of control", "setting": "[4]", "result": 100, "unit": "%"}]}, {"smiles": "Cc1cc([C@@H](C)Nc2ccccc2C(=O)O)c2nc(N3CCOCC3)cc(=O)n2c1", "note": "[AZD-6482]", "values": [{"measurement": "% of control", "setting": "[5]", "result": 94, "unit": "%"}, {"measurement": "% of control", "setting": "[6]", "result": 100, "unit": "%"}]}, {"smiles": "CC(=O)Nc1cccc(-n2c(=O)n(C3CC3)c(=O)c3c(Nc4ccc(I)cc4F)n(C)c(=O)c(C)c32)c1", "values": [{"measurement": "% of control", "setting": "[7]", "result": 97, "unit": "%"}]}, {"smiles": "CCC(=O)N1CC[C@H](Nc2ncnc3c2CN(c2cnc(OC)c(C(F)(F)F)c2)CC3)C1", "note": "[LENIOLISIB]", "values": [{"measurement": "IC50", "setting": "[8]", "result": "> 10", "unit": "µM"}]}, {"smiles": "CN1Cc2nccc(-c3cn(C)nc3-c3ccc(F)cc3)c2C1=O", "values": [{"measurement": "% of inhibition", "setting": "[9]", "result": 3, "unit": "%"}]}, {"smiles": "CNC(=O)Nc1ccc(-c2nc(N3CC4CCC(C3)O4)c3cnn(C4CCC5(CC4)OCCO5)c3n2)cc1", "values": [{"measurement": "% of inhibition", "setting": "[10]", "result": 4, "unit": "%"}]}, {"smiles": "O[C@H]1CC[C@H](Nc2ncc3nc(Nc4c(F)cc(F)cc4F)n([C@H]4CCOC4)c3n2)CC1", "values": [{"measurement": "% of control", "setting": "[11]", "result": 88, "unit": "%"}]}, {"smiles": "CN(C)CCOc1ccc(-c2nc(-c3ccncc3)c(-c3ccc4c(c3)CC/C4=N\\O)[nH]2)cc1", "values": [{"measurement": "% of control", "setting": "[12]", "result": 100, "unit": "%"}]}, {"smiles": "CCN(CC)CCCCNc1ncc2cc(-c3cc(OC)cc(OC)c3)c(NC(=O)NC(C)(C)C)nc2n1", "values": [{"measurement": "% of control", "setting": "[13]", "result": 3.7, "unit": "%"}, {"measurement": "% of control", "setting": "[14]", "result": 0.1, "unit": "%"}, {"measurement": "% of control", "setting": "[15]", "result": 100, "unit": "%"}]}, {"smiles": "CCC(=O)N1CCN(c2ccc(-n3c(=O)ccc4cnc5ccc(-c6cnc7ccccc7c6)cc5c43)cc2C(F)(F)F)CC1", "values": [{"measurement": "% of control", "setting": "[16]", "result": 59, "unit": "%"}]}, {"smiles": "CN(C)C/C=C/C(=O)Nc1ccc(C(=O)N2CCCC(Nc3ncc(Cl)c(-c4c[nH]c5ccccc45)n3)C2)cc1", "note": "(configuration not stated)", "values": [{"measurement": "% of control", "setting": "[17]", "result": 100, "unit": "%"}]}]}
